According to paper PMC4411097, “Pachymic Acid Inhibits Growth and Induces Apoptosis of Pancreatic Cancer In Vitro and In Vivo by Targeting ER Stress” (PLoS ONE, 2015):

System: MIA PaCa-2 cells
Experiment: DNA microarray analysis (Affymetrix Human PrimeView);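 as to Mean (MiaPaca-2 * PA): Log2-transformed RMA normalized probe set signal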
Assay type: cell-based
[1] = gene HNRNPM, probeset 11761514_at
[2] = gene IER5, probeset 11716629_at
[3] = gene IRAK2, probeset 11733240_at
[4] = gene LIF, probeset 11758619_s_at
[5] = gene LTB, probeset 11739657_a_at
[6] = gene MALAT1, probeset 11745723_a_at
[7] = gene MARS2, probeset 11729710_a_at
[8] = gene MARS2, probeset 11750890_a_at
[9] = gene MCL1, probeset 11715484_a_at
[10] = gene NAV3, probeset 11723147_a_at
[11] = gene NFKBIA, probeset 11745878_x_at
[12] = gene NFKBIA, probeset 11757894_x_at
[13] = gene PHLDA2, probeset 11744005_at
[14] = gene PLEKHG6, probeset 11733595_x_at
[15] = gene RPS4X, probeset 11761933_at
[16] = gene SAT1, probeset 11743036_s_at
[17] = gene SDC4, probeset 11717639_x_at
[18] = gene SDC4, probeset 11749921_a_at
[19] = gene SH3BP1, probeset 11728063_x_at
[20] = gene SLC3A2, probeset 11733071_a_at
[21] = gene SLC3A2, probeset 11741149_x_at
[22] = gene SLC3A2, probeset 11746697_a_at
[23] = gene SLC3A2, probeset 11753434_a_at
[24] = gene SLC16A6, probeset 11735090_s_at
[25] = gene SLC16A6, probeset 11754629_s_at
[26] = gene SMAGP, probeset 11719864_a_at

SMILES: C=C(CC[C@@H](C(=O)O)[C@H]1[C@H](O)C[C@@]2(C)C3=C(CC[C@]12C)[C@@]1(C)CC[C@H](OC(C)=O)C(C)(C)[C@@H]1CC3)C(C)C [PA, Pachymic acid]
- Fold-Change (MiaPaca-2 * PA vs. MiaPaca-2 * control) [1]: 1.65
- Mean (MiaPaca-2 * PA) [1]: 9.69
- Fold-Change (MiaPaca-2 * PA vs. MiaPaca-2 * control) (gene HNRNPM, probeset 11761516_x_at, MiaPaca-2): 1.50
- Mean (MiaPaca-2 * PA) (gene HNRNPM, probeset 11761516_x_at, MiaPaca-2, PA-treated): 10.58
- Fold-Change (MiaPaca-2 * PA vs. MiaPaca-2 * control) (gene HOOK1, probeset 11750347_a_at, MiaPaca-2): 1.50
- Mean (MiaPaca-2 * PA) (gene HOOK1, probeset 11750347_a_at, MiaPaca-2, PA-treated): 3.97
- Fold-Change (MiaPaca-2 * PA vs. MiaPaca-2 * control) [2]: 1.60
- Mean (MiaPaca-2 * PA) [2]: 7.72
- Fold-Change (MiaPaca-2 * PA vs. MiaPaca-2 * control) (gene IL12A, probeset 11756769_a_at, MiaPaca-2): 1.50
- Mean (MiaPaca-2 * PA) (gene IL12A, probeset 11756769_a_at, MiaPaca-2, PA-treated): 5.04
- Fold-Change (MiaPaca-2 * PA vs. MiaPaca-2 * control) [3]: 1.59
- Mean (MiaPaca-2 * PA) [3]: 6.52
- Fold-Change (MiaPaca-2 * PA vs. MiaPaca-2 * control) (gene KLHL29, probeset 11745365_at, MiaPaca-2): 1.51
- Mean (MiaPaca-2 * PA) (gene KLHL29, probeset 11745365_at, MiaPaca-2, PA-treated): 5.04
- Fold-Change (MiaPaca-2 * PA vs. MiaPaca-2 * control) (gene LIF, probeset 11726498_at): 1.55
- Mean (MiaPaca-2 * PA) (gene LIF, probeset 11726498_at): 7.20
- Fold-Change (MiaPaca-2 * PA vs. MiaPaca-2 * control) [4]: 1.55
- Mean (MiaPaca-2 * PA) [4]: 9.50
- Fold-Change (MiaPaca-2 * PA vs. MiaPaca-2 * control) (gene LRP8, probeset 11741376_a_at, MiaPaca-2): 1.53
- Mean (MiaPaca-2 * PA) (gene LRP8, probeset 11741376_a_at, MiaPaca-2, PA-treated): 7.95
- Fold-Change (MiaPaca-2 * PA vs. MiaPaca-2 * control) [5]: 1.54
- Mean (MiaPaca-2 * PA) [5]: 6.97
- Fold-Change (MiaPaca-2 * PA vs. MiaPaca-2 * control) (gene MAFF, probeset 11726611_x_at, MiaPaca-2): 1.50
- Mean (MiaPaca-2 * PA) (gene MAFF, probeset 11726611_x_at, MiaPaca-2, PA-treated): 6.99
- Fold-Change (MiaPaca-2 * PA vs. MiaPaca-2 * control) [6]: 1.55
- Mean (MiaPaca-2 * PA) [6]: 9.40
- Fold-Change (MiaPaca-2 * PA vs. MiaPaca-2 * control) [7]: 1.55
- Mean (MiaPaca-2 * PA) [7]: 6.32
- Fold-Change (MiaPaca-2 * PA vs. MiaPaca-2 * control) [8]: 1.61
- Mean (MiaPaca-2 * PA) [8]: 6.51
- Fold-Change (MiaPaca-2 * PA vs. MiaPaca-2 * control) [9]: 1.60
- Mean (MiaPaca-2 * PA) [9]: 8.79
- Fold-Change (MiaPaca-2 * PA vs. MiaPaca-2 * control) (gene MMP1, probeset 11741897_a_at, MiaPaca-2): 1.52
- Mean (MiaPaca-2 * PA) (gene MMP1, probeset 11741897_a_at, MiaPaca-2, PA-treated): 5.59
- Fold-Change (MiaPaca-2 * PA vs. MiaPaca-2 * control) [10]: 1.54
- Mean (MiaPaca-2 * PA) [10]: 5.19
- Fold-Change (MiaPaca-2 * PA vs. MiaPaca-2 * control) (gene NFKBIA, probeset 11744000_a_at): 1.65
- Fold-Change (MiaPaca-2 * PA vs. MiaPaca-2 * control) [11]: 1.67
- Mean (MiaPaca-2 * PA) [11]: 11.53
- Fold-Change (MiaPaca-2 * PA vs. MiaPaca-2 * control) [12]: 1.56
- Mean (MiaPaca-2 * PA) [12]: 11.80
- Fold-Change (MiaPaca-2 * PA vs. MiaPaca-2 * control) (gene PABPC1L, probeset 11721609_a_at, MiaPaca-2): 1.51
- Mean (MiaPaca-2 * PA) (gene PABPC1L, probeset 11721609_a_at, MiaPaca-2, PA-treated): 9.20
- Fold-Change (MiaPaca-2 * PA vs. MiaPaca-2 * control) [13]: 1.57
- Mean (MiaPaca-2 * PA) [13]: 8.15
- Fold-Change (MiaPaca-2 * PA vs. MiaPaca-2 * control) (gene PHLDB2, probeset 11737041_a_at, MiaPaca-2): 1.50
- Mean (MiaPaca-2 * PA) (gene PHLDB2, probeset 11737041_a_at, MiaPaca-2, PA-treated): 11.63
- Fold-Change (MiaPaca-2 * PA vs. MiaPaca-2 * control) [14]: 1.55
- Mean (MiaPaca-2 * PA) [14]: 5.78
- Fold-Change (MiaPaca-2 * PA vs. MiaPaca-2 * control) (gene PNP, probeset 11718400_a_at, MiaPaca-2): 1.50
- Mean (MiaPaca-2 * PA) (gene PNP, probeset 11718400_a_at, MiaPaca-2, PA-treated): 10.30
- Fold-Change (MiaPaca-2 * PA vs. MiaPaca-2 * control) (gene RBM3, probeset 11760141_s_at, MiaPaca-2): 1.52
- Mean (MiaPaca-2 * PA) (gene RBM3, probeset 11760141_s_at, MiaPaca-2, PA-treated): 5.58
- Fold-Change (MiaPaca-2 * PA vs. MiaPaca-2 * control) (gene RCAN1, probeset 11763514_x_at, MiaPaca-2): 1.51
- Mean (MiaPaca-2 * PA) (gene RCAN1, probeset 11763514_x_at, MiaPaca-2, PA-treated): 7.84
- Fold-Change (MiaPaca-2 * PA vs. MiaPaca-2 * control) (gene RPL37A, probeset 11759821_at, MiaPaca-2): 1.51
- Mean (MiaPaca-2 * PA) (gene RPL37A, probeset 11759821_at, MiaPaca-2, PA-treated): 7.62
- Fold-Change (MiaPaca-2 * PA vs. MiaPaca-2 * control) [15]: 1.59
- Mean (MiaPaca-2 * PA) [15]: 5.23
- Fold-Change (MiaPaca-2 * PA vs. MiaPaca-2 * control) [16]: 1.56
- Mean (MiaPaca-2 * PA) [16]: 10.67
- Fold-Change (MiaPaca-2 * PA vs. MiaPaca-2 * control) [17]: 1.61
- Mean (MiaPaca-2 * PA) [17]: 10.95
- Fold-Change (MiaPaca-2 * PA vs. MiaPaca-2 * control) [18]: 1.53
- Mean (MiaPaca-2 * PA) [18]: 8.87
- Fold-Change (MiaPaca-2 * PA vs. MiaPaca-2 * control) [19]: 1.54
- Mean (MiaPaca-2 * PA) [19]: 7.60
- Fold-Change (MiaPaca-2 * PA vs. MiaPaca-2 * control) [20]: 1.55
- Mean (MiaPaca-2 * PA) [20]: 8.64
- Fold-Change (MiaPaca-2 * PA vs. MiaPaca-2 * control) [21]: 1.56
- Mean (MiaPaca-2 * PA) [21]: 8.54
- Fold-Change (MiaPaca-2 * PA vs. MiaPaca-2 * control) [22]: 1.58
- Mean (MiaPaca-2 * PA) [22]: 8.64
- Fold-Change (MiaPaca-2 * PA vs. MiaPaca-2 * control) [23]: 1.53
- Mean (MiaPaca-2 * PA) [23]: 7.98
- Fold-Change (MiaPaca-2 * PA vs. MiaPaca-2 * control) (gene SLC3A2, probeset 11754529_x_at, MiaPaca-2): 1.52
- Mean (MiaPaca-2 * PA) (gene SLC3A2, probeset 11754529_x_at, MiaPaca-2, PA-treated): 9.50
- Fold-Change (MiaPaca-2 * PA vs. MiaPaca-2 * control) [24]: 1.58
- Mean (MiaPaca-2 * PA) [24]: 5.46
- Fold-Change (MiaPaca-2 * PA vs. MiaPaca-2 * control) [25]: 1.55
- Mean (MiaPaca-2 * PA) [25]: 6.21
- Fold-Change (MiaPaca-2 * PA vs. MiaPaca-2 * control) [26]: 1.55
- Mean (MiaPaca-2 * PA) [26]: 9.61
- Fold-Change (MiaPaca-2 * PA vs. MiaPaca-2 * control) (gene SMURF2, probeset 11748382_a_at, MiaPaca-2): 1.50
- Mean (MiaPaca-2 * PA) (gene SMURF2, probeset 11748382_a_at, MiaPaca-2, PA-treated): 8.51
- Fold-Change (MiaPaca-2 * PA vs. MiaPaca-2 * control) (gene SNHG12, probeset 11753858_a_at, MiaPaca-2): 1.50
- Mean (MiaPaca-2 * PA) (gene SNHG12, probeset 11753858_a_at, MiaPaca-2, PA-treated): 10.82
- Fold-Change (MiaPaca-2 * PA vs. MiaPaca-2 * control) (gene SPRY4, probeset 11736669_s_at, MiaPaca-2): 1.50
